Source: patent US10618914B2 (UNIVERSITY OF PITTSBURGH—OF THE COMMONWEALTH SYSTEM OF …, priority 2015, dated 2020)
Values joined by “and” are separate entries in the source; they are usually repeats but may differ in a detail not shown here. Equal entries are not always repeated. Where two headings read alike, the source gives them in different places.

Assays:
STAT3 = experiment: HCS STAT3 assay; type: cell-based
Cal33 cells = experiment: Cal33 growth inhibition; type: cell-based; details: for GI50: Table 5, * average of 2 experiments
[1] = Table 2, read-out: STAT3 (IC50)
[2] = Table 2, read-out: Cal33 (IC50)
[3] = FIG. 3, read-out: STAT3 potency (IC50)
[4] = Table 1, read-out: STAT3 (mean IC50)
[5] = Homo sapiens, CAL-33, Table 1, read-out: Growth Inhibition Cal33 (mean IC50)
[6] = Homo sapiens, CAL-33, Table 2, read-out: Cal33 (IC50)

IC50 (STAT3; [1])	SMILES	IC50 (Cal33 cells; [2])	other results
5.8 µM	COc1ccc(C2=Nn3c(nnc3-c3cc(-c4ccccc4)n[nH]3)SC2Cc2ccccc2)cc1 (stereo not shown) [compound 10321]		
8.5 µM	COCCC1Sc2nnc(-c3cc(-c4ccc(F)cc4)n[nH]3)n2N=C1c1ccc(OC)cc1 (stereo not shown) [compound 10374]	14.4 µM	
4.8 µM	CC1Sc2nnc(-c3cc(-c4ccccc4)n(C)n3)n2N=C1c1ccc(Cl)c(Cl)c1 (stereo not shown) [compound 10543]	35 µM	
24.4 µM	CC1Sc2nnc(-c3[nH]nc4c3CCC4)n2N=C1c1ccc(C(F)(F)F)cc1 (stereo not shown) [compound 10470]	1.4 µM	
6.6 µM	CCN(CC)c1ccc(C2=Nn3c(nnc3-c3[nH]nc4c3CCC4)SC2C)cc1 (stereo not shown) [compound 10521]	1 µM	
31 µM	CC1Sc2nnc(-c3nn(Cc4ccc(OC(F)(F)F)cc4)c4c3CCC4)n2N=C1c1ccc(Cl)c(Cl)c1 (stereo not shown) [compound 10477]	34.3 µM	
34.1 µM	COc1ccc(C2=Nn3c(nnc3-c3nn(CC(=O)OC(C)(C)C)c4c3CCC4)SC2C)cc1 (stereo not shown) [compound 10438]	49.6 µM	
37.1 µM	COc1ccc(C2=Nn3c(nnc3-c3nn(C(C)=O)c4c3CCC4)SC2C)cc1 (stereo not shown) [compound 10421]	0.26 µM	
4.4 µM	CC(C)C1Sc2nnc(-c3[nH]nc4c3CCC4)n2N=C1c1ccc(Cl)c(Cl)c1 (racemic) [compound 10299]	8.2 µM	IC50 (STAT3; [3]): < 10 µM
5.7 µM	CCN(CC)c1ccc(C2=Nn3c(nnc3-c3cc(-c4ccccc4)nn3C)SC2C)cc1 (stereo not shown) [compound 10559]	27.5 µM	
	COc1ccc(C2=Nn3c(nnc3C(C)C)SC2C)cc1 (stereo not shown) [UPCDC10332]		IC50 (STAT3; [4]): 14.3 µM; IC50 (Cal33 cells; [5]): 0.16 µM
40.1 µM	COc1cccc(C2=Nn3c(nnc3-c3[nH]nc4c3CCC4)SC2C)c1 (stereo not shown) [compound 10471]	3.9 µM	
	COc1ccc(C2=Nn3c(nnc3-c3[nH]nc4c3CCC4)SC2C(C)C)cc1 (stereo not shown) [UPCDC10318]		IC50 (Cal33 cells; [5]): 0.4 µM; IC50 (Cal33 cells; [6]): 0.4 µM
7.1 µM	COc1cccc(C2=Nn3c(nnc3-c3cc(-c4ccccc4)n[nH]3)SC2C)c1 (stereo not shown) [compound 10475]	12.4 µM	
26.2 µM	COc1ccc(C2=Nn3c(-c4cc(-c5ccccc5)n[nH]4)nnc3[S+]([O-])C2C)cc1 (stereo not shown) [compound 10534]		IC50 (Cal33 cells; [6]): 50 µM
5.9 µM	CC1Sc2nnc(-c3nn(Cc4ccccc4)c4c3CCC4)n2N=C1c1ccc(Cl)c(Cl)c1 (stereo not shown) [compound 10491]	17.4 µM	
7.9 µM	COc1ccc(C2=Nn3c(nnc3-c3cc(-c4ccccc4)n(C(C)=O)n3)SC2C)cc1 (stereo not shown) [compound 10479]	38.1 µM	
9.9 µM	COc1ccc(C2=Nn3c(nnc3-c3cc(-c4ccccc4)n[nH]3)SC2CC(=O)N(C)C)cc1 (stereo not shown) [compound 10425]	29.3 µM	IC50 (STAT3; [3]): < 10 µM
8.8 µM	CCN(CC)CCC1Sc2nnc(-c3cc(-c4ccccc4)n[nH]3)n2N=C1c1ccc(OC)cc1 (stereo not shown) [compound 10380]	3.7 µM	IC50 (STAT3; [3]): < 10 µM
7.6 µM	COc1ccc(C2=Nn3c(nnc3-c3nn(Cc4ccccc4)c4c3CCC4)SC2C)cc1 (stereo not shown) [compound 10439]	1.7 µM	
35.9 µM	CC1Sc2nnc(-c3cc(-c4ccccc4)n[nH]3)n2N=C1c1ccc(C(F)(F)F)cc1 (stereo not shown) [compound 10478]	50 µM	

IC50 (STAT3; [1])	SMILES	IC50 (Cal33 cells; [2])	other results
	Clc1ccc(C2=Nn3c(nnc3-c3[nH]nc4c3CCC4)SC2)cc1 [UPCDC87346005]		IC50 (Cal33 cells; [5]): 0.77 µM
32.2 µM	CC1Sc2nnc(-c3cc(-c4cccc(Cl)c4)n[nH]3)n2N=C1c1ccc(Cl)c(Cl)c1 (stereo not shown) [compound 10538]	13.7 µM	
3.8 µM	CC1Sc2nnc(-c3cc(-c4ccc(F)cc4)n[nH]3)n2N=C1c1ccccc1 (racemic) [compound 10135]	33.4 µM	
	COc1ccc(C2=Nn3c(nnc3-c3cc(-c4ccc(Cl)cc4)n[nH]3)SC2C)cc1 (stereo not shown) [Cmpd 24]		GI50 (Cal33 cells): 2200 ± 300 nM
47.1 µM	CC1Sc2nnc(-c3[nH]nc4c3CCC4)n2N=C1c1ccc(F)c(F)c1 (stereo not shown) [compound 10510]	50 µM	
16 µM	CC1Sc2nnc(-c3cc(-c4ccc(Cl)cc4)n[nH]3)n2N=C1c1ccc(Cl)c(Cl)c1 (stereo not shown) [compound 10537]	7.6 µM	
7.21 µM	CC1Sc2nnc(-c3[nH]nc4c3CCC4)n2N=C1c1ccc(Cl)cc1 (stereo not shown) [UPCDC10281]		IC50 (STAT3; [4]): 7.21 µM; IC50 (Cal33 cells; [5]): 0.44 µM; IC50 (Cal33 cells; [6]): 0.44 µM
8.7 µM	COc1ccc(C2=Nn3c(nnc3-c3cc(-c4cccc(Cl)c4)n[nH]3)SC2C)cc1 (stereo not shown) [compound 10539]	12.7 µM	
41.1 µM	Cc1ccc(C2=Nn3c(nnc3-c3[nH]nc4c3CCC4)SC2C)cc1 (stereo not shown) [compound 10472]	0.18 µM	
7.5 µM	Clc1ccc(C2=Nn3c(nnc3-c3[nH]nc4c3CCC4)SC2Cc2ccccc2)cc1Cl (stereo not shown) [compound 10308]	3.3 µM	IC50 (STAT3; [3]): < 10 µM
25.3 µM	COC(=O)Cn1nc(-c2nnc3n2N=C(c2ccc(OC)cc2)C(C)S3)c2c1CCC2 (stereo not shown) [compound 10437]	2.8 µM	
	COc1ccc(C2=Nn3c(nnc3-c3cc(-c4ccc(Cl)cc4)n[nH]3)SC2C)cc1 (racemic) [compound 10205]	2.1 µM and 2 µM	
38.2 µM	CC1(C)Sc2nnc(-c3cc(-c4ccc(Cl)cc4)n[nH]3)n2N=C1c1ccccc1 [compound 10268]	50 µM	
5.7 µM	CC1Sc2nnc(-c3cc(-c4ccc(Cl)cc4)n[nH]3)n2N=C1c1ccccc1 (racemic) [compound 10174]	35.5 µM	
4.7 µM	COc1ccc(C2=Nn3c(nnc3-c3cc(-c4ccccc4)nn3C)SC2C)cc1 (stereo not shown) [compound 10540]	1.3 µM	
7.6 µM	COc1ccc(C2=Nn3c(nnc3-c3cc(-c4ccccc4)n[nH]3)SC2C)cc1 (stereo not shown) [compound 10511]	28 µM	
33.9 µM	COc1ccc(C2=Nn3c(nnc3-c3[nH]nc4c3CSC4)SC2C)cc1 (stereo not shown) [compound 10435]	0.63 µM	
6.5 µM	COc1ccc(C2=Nn3c(nnc3-c3cc(-c4ccccc4)n(C)n3)SC2C)cc1 (stereo not shown) [compound 10542]	15.1 µM	
9.1 µM	COc1ccc(C2=Nn3c(nnc3-c3cc(-c4ccccc4)n[nH]3)SC2CC(=O)N2CCCC2)cc1 (stereo not shown) [compound 10426]	20.5 µM	IC50 (STAT3; [3]): < 10 µM
19.5 µM	COc1ccc(C2=Nn3c(nnc3-c3[nH]nc4c3CCC4)SC2Cc2ccccc2)cc1 (stereo not shown) [compound 10320]	0.83 µM	
25.1 µM	COc1ccc(C2=Nn3c(nnc3-c3[nH]nc4c3CCC4)SC2C)cc1OC (stereo not shown) [compound 10494]	5.7 µM	

IC50 (STAT3; [1])	SMILES	IC50 (Cal33 cells; [2])	other results
22.6 µM	Clc1ccc(C2=Nn3c(nnc3-c3cc(-c4ccccc4)n[nH]3)SC2Cc2ccccc2)cc1Cl (stereo not shown) [compound 10309]		
22.7 µM	CC(=O)n1nc(-c2nnc3n2N=C(c2ccc(Cl)c(Cl)c2)C(C)S3)c2c1CCC2 (stereo not shown) [compound 10458]	4.5 µM	
9.1 µM	COc1cccc(C2=Nn3c(nnc3-c3cc(-c4cccc(Cl)c4)n[nH]3)SC2C)c1 (stereo not shown) [compound 10536]	9.3 µM	
	COc1ccc(C2=Nn3c(nnc3-c3[nH]nc4c3CCCC4)SC2)cc1 [UPCDC10073]		IC50 (STAT3; [4]): 17 µM; IC50 (Cal33 cells; [5]): 0.2 µM
	c1ccc2c(C3=Nn4c(nnc4-c4[nH]nc5c4CCC5)SC3)c[nH]c2c1 [UPCDC10115]		IC50 (STAT3; [4]): 38 µM; IC50 (Cal33 cells; [5]): 0.21 µM
34.7 µM	COc1ccc(C2=Nn3c(nnc3-c3nn(C(=O)OC(C)(C)C)c4c3CCC4)SC2C)cc1 (stereo not shown) [compound 10422]	0.38 µM	
39.3 µM	CC1Sc2nnc(-c3cc(-c4ccccc4)n[nH]3)n2N=C1c1ccc(N2CCOCC2)cc1 (stereo not shown) [compound 10522]	9.6 µM	
4.2 µM	COc1ccc(C2=Nn3c(nnc3-c3cc(-c4ccc(F)cc4)n[nH]3)SC2C)cc1 (racemic) [compound 10204]	33 µM	
15.5 µM	CCOC(=O)CC1Sc2nnc(-c3cc(-c4ccccc4)n[nH]3)n2N=C1c1ccc(OC)cc1 (stereo not shown) [compound 10448]	13.6 µM	
22.4 µM	CC1Sc2nnc(-c3[nH]nc4c3CCCC4)n2N=C1c1ccccc1 (racemic) [compound 10175]	40.2 µM	
6.3 µM	COc1ccc(C2=Nn3c(nnc3-c3cc(-c4ccccc4)nn3C(C)=O)SC2C)cc1 (stereo not shown) [compound 10480]	30.4 µM	
7.6 µM	COc1ccc(C2=Nn3c(nnc3-c3cc(-c4ccccc4)n[nH]3)SC2C)cc1OC (stereo not shown) [compound 10495]	13.1 µM	
49.2 µM	COc1ccc(C2=Nn3c(nnc3-c3[nH]nc4c3CCC4)SC2CCO)cc1 (stereo not shown) [compound 10403]	0.93 µM	
12.2 µM	CC(C)C1Sc2nnc(-c3cc(-c4ccccc4)n(C)n3)n2N=C1c1ccccc1 (stereo not shown) [compound 10562]	50 µM	
18.6 µM	CC1(C)Sc2nnc(-c3[nH]nc4c3CCC4)n2N=C1c1ccc(Cl)c(Cl)c1 [compound 10283]	50 µM	
	COc1ccc(C2=Nn3c(nnc3-c3cc(-c4ccccc4)n[nH]3)SC2CCN)cc1 (stereo not shown) [compound 10371]	24.1 µM	
	COc1ccc(C2=Nn3c(nnc3-c3[nH]nc4c3CCC4)SC2)cc1		IC50 (Cal33 cells; [5]): 0.15 µM
8.5 µM and 11 µM	CC1Sc2nnc(-c3[nH]nc4c3CCC4)n2N=C1c1ccc(Cl)c(Cl)c1 (stereo not shown) [compound 10263, 6-(3,4-Dichlorophenyl)-7-methyl-3-(2,4,5,6-tetrahydrocyclopenta[c]pyrazol-3-yl)-7H-[1,2,4]triazolo[3,4-b][1,3,4]thiadiazine]		
	COCCC1Sc2nnc(-c3cc(-c4ccccc4)n[nH]3)n2N=C1c1ccc(OC)cc1 (stereo not shown) [Cmpd 31]		GI50 (Cal33 cells): 40 nM
	COc1ccc(C2=Nn3c(nnc3-c3cc(-c4ccccc4)n[nH]3)SC2CCN)cc1 (stereo not shown) [Cmpd 30]		GI50 (Cal33 cells): 2500 nM
	COc1ccc(C2=Nn3c(nnc3-c3cc(-c4ccccc4)n[nH]3)SC2CC(C)C)cc1 (stereo not shown) [compound 10307]	11.5 µM	

SMILES	IC50 (STAT3; [1])	IC50 (Cal33 cells; [2])	other results
CC1Sc2nnc(-c3cc(-c4ccccc4)n[nH]3)n2N=C1c1ccccc1 (stereo not shown) [compound 10131]	3 µM	26.3 µM	
